Assay results reported in ChEMBL document CHEMBL4229457, “Mechanism underlying inhibitory effect of six dicaffeoylquinic acid isomers on melanogenesis and the computational molecular modeling studies” (Bioorg Med Chem, 2018).
Active and inactive are the calls of the source. The rule behind the calls is not given here.

Tests used:
B16-F1 [1] = assay: Inhibition of alpha-MSH-stimulated melanogenesis in mouse B16-F1 cells assessed as reduction in intracellular melanin production at 25 uM after 72 hrs relative to control; type: functional; settings: B16-F1, 72 h
[2] = target: T1, Tyrosinase (Mus musculus) (UniProt P11344); settings: at 25 µM
T1 sequence (whole entry): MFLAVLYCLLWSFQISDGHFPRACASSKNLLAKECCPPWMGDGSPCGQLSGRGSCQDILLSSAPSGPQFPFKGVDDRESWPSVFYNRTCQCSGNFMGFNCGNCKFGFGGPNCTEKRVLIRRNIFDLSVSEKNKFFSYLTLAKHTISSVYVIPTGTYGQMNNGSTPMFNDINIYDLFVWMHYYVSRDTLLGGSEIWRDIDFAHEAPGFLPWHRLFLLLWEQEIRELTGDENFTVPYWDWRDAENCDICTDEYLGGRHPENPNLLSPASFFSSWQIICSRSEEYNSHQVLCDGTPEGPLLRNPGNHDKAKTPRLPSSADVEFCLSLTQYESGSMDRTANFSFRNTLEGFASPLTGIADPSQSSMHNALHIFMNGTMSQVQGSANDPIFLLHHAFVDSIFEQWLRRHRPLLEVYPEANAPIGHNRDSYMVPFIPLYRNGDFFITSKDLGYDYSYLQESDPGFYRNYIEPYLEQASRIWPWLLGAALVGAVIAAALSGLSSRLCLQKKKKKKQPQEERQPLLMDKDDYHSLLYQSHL
Description: Inhibition of tyrosinase in mouse B16-F1 cell lysates assessed as reduction in melanin production at 25 uM using L-DOPA as substrate incubated for 30 mins followed by substrate addition measured after 30 mins

B16-F1 [3] = assay: Inhibition of adenylate cyclase in alpha-MSH-stimulated mouse B16-F1 cells assessed as reduction in cAMP-CREB signaling pathway-mediated DCT expression level at 25 uM after 48 to 72 hrs by Western blot analysis; type: cell-based
B16-F1 [4] = assay: Cytotoxicity against mouse B16-F1 cells assessed as reduction in cell viability at 25 uM after 72 hrs by MTT assay; type: cell-based; settings: b16-f1, 72 h
B16-F1 [5] = assay: Inhibition of adenylate cyclase in alpha-MSH-stimulated mouse B16-F1 cells assessed as reduction in cAMP-CREB signaling pathway-mediated TYR expression level at 25 uM after 48 to 72 hrs by Western blot analysis; type: cell-based
[6] = Inhibition of melanogenesis in HEMn assessed as reduction in intracellular melanin production at 1 uM after 72 hrs relative to control; type: functional; settings: Homo sapiens
[7] = Inhibition of melanogenesis in HEMn assessed as reduction in intracellular melanin production at 10 uM after 72 hrs relative to control; type: functional; settings: Homo sapiens
B16-F1 [8] = assay: Downregulation of adenylate cyclase protein expression level in alpha-MSH-stimulated mouse B16-F1 cells at 25 uM by Western blot analysis; type: functional, cell-based
[9] = target: T2, Tyrosinase (Homo sapiens) (UniProt P14679); assay: Inhibition of tyrosinase in HEMn lysates assessed as reduction in melanin production using L-DOPA as substrate incubated for 30 mins followed by substrate addition measured after 30 mins
T2 sequence (whole entry): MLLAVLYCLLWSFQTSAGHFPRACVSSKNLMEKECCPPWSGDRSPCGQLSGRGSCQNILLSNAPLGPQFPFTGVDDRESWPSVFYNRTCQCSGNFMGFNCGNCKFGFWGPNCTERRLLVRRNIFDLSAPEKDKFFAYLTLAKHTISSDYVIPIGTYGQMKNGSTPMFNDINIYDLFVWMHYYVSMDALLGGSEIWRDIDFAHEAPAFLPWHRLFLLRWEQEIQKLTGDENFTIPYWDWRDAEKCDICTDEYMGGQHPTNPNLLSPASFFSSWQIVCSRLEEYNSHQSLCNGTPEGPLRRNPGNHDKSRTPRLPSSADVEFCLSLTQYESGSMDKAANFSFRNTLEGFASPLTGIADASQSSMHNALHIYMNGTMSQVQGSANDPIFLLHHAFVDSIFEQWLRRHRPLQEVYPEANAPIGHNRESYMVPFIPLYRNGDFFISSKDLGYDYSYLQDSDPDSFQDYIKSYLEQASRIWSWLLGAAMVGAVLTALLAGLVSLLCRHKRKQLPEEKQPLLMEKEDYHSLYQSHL

B16-F1 [10] = assay: Inhibition of adenylate cyclase in alpha-MSH-stimulated mouse B16-F1 cells assessed as reduction in CREB phosphorylation at 25 uM measured up to 360 mins by Western blot analysis; type: cell-based
Mus musculus [11] = species on record: Mus musculus; assay: Inhibition of adenylate cyclase in mouse B16-F1 cell lysates assessed as reduction in alpha-MSH-induced cAMP levels incubated for 6 hrs followed by forskolin stimulation measured after 30 mins by immuno assay
B16-F1 [12] = assay: Inhibition of adenylate cyclase in alpha-MSH-stimulated mouse B16-F1 cells assessed as reduction in cAMP-CREB signaling pathway-mediated TRP1 expression level at 25 uM after 48 to 72 hrs by Western blot analysis; type: cell-based
B16-F1 [13] = assay: Inhibition of adenylate cyclase in alpha-MSH-stimulated mouse B16-F1 cells assessed as reduction in cAMP-CREB signaling pathway-mediated MITF expression level at 25 uM after 48 to 72 hrs by Western blot analysis; type: cell-based
[14] = Inhibition of melanogenesis in HEMn assessed as reduction in intracellular melanin production at 5 uM after 72 hrs relative to control; type: functional; settings: Homo sapiens
[15] = Inhibition of melanogenesis in HEMn assessed as reduction in intracellular melanin production at 25 uM after 72 hrs relative to control; type: functional; settings: Homo sapiens
Mus musculus [16] = species on record: Mus musculus; assay: Inhibition of adenylate cyclase in mouse B16-F1 cell lysates assessed as reduction in forskolin-induced cAMP levels incubated for 6 hrs followed by forskolin stimulation measured after 30 mins by immuno assay

Compound	inhibition [2]	inhibition [9]	inhibition (Mus musculus [11])	inhibition (Mus musculus [16])	inhibition at 25 µM (B16-F1 [1])	inhibition (B16-F1 [3])	Activity (B16-F1 [4])	inhibition (B16-F1 [5])	inhibition at 1 µM [6]	inhibition at 10 µM [7]	Activity (B16-F1 [8])	inhibition (B16-F1 [10])	inhibition (B16-F1 [12])	inhibition (B16-F1 [13])	inhibition at 5 µM [14]	inhibition at 25 µM [15]
OC[C@H]1O[C@@H](Oc2ccc(O)cc2)[C@H](O)[C@@H](O)[C@@H]1O [ARBUTIN]	Active	–	–	–	34%	–	–	–	–	–	–	–	–	–	–	–
O=C(/C=C/c1ccc(O)c(O)c1)O[C@H]1C[C@@](OC(=O)/C=C/c2ccc(O)c(O)c2)(C(=O)O)C[C@H](O)[C@@H]1O	> 20%	–	–	–	26%	Active	Non-Toxic	66%	–	–	–	–	–	–	–	–
O=C(/C=C/c1ccc(O)c(O)c1)O[C@@H]1C[C@@](OC(=O)/C=C/c2ccc(O)c(O)c2)(C(=O)O)C[C@@H](O)[C@@H]1O [CYNARIN]	> 20%	–	–	–	61%	Active	Non-Toxic	72%	–	–	–	–	–	–	–	–
O=C(/C=C/c1ccc(O)c(O)c1)OC1[C@H](O)CC(OC(=O)/C=C/c2ccc(O)c(O)c2)(C(=O)O)C[C@@H]1O (stereo not given in full)	> 20%	–	–	–	18%	Active	Non-Toxic	92%	–	–	–	–	–	–	–	–

Now from value to molecule, other results behind:

inhibition [2]	inhibition [9]	inhibition (Mus musculus [11])	inhibition (Mus musculus [16])	Compound	inhibition at 25 µM (B16-F1 [1])	inhibition (B16-F1 [3])	Activity (B16-F1 [4])	inhibition (B16-F1 [5])	inhibition at 1 µM [6]	inhibition at 10 µM [7]	Activity (B16-F1 [8])	inhibition (B16-F1 [10])	inhibition (B16-F1 [12])	inhibition (B16-F1 [13])	inhibition at 5 µM [14]	inhibition at 25 µM [15]
> 20%	Dose-dependent effect	Dose-dependent effect	Dose-dependent effect	O=C(/C=C/c1ccc(O)c(O)c1)O[C@H]1[C@H](O)C[C@@](O)(C(=O)O)C[C@H]1OC(=O)/C=C/c1ccc(O)c(O)c1	84%	Active	Non-Toxic	Active	7.7%	25.8%	inactive	Active	Active	91%	11.2%	51.2%
> 20%	–	–	–	O=C(/C=C/c1ccc(O)c(O)c1)O[C@@H]1[C@H](O)C[C@@](O)(C(=O)O)C[C@H]1OC(=O)/C=C/c1ccc(O)c(O)c1	26%	Active	Non-Toxic	Active	–	–	–	–	–	–	–	–
> 20%	–	–	–	O=C(/C=C/c1ccc(O)c(O)c1)O[C@@H]1C[C@](O)(C(=O)O)C[C@@H](OC(=O)/C=C/c2ccc(O)c(O)c2)[C@H]1O	26%	Active	Non-Toxic	Active	–	–	–	–	Active	Active	–	–
